Where “and” joins values, the source holds several entries; their conditions need not be identical. Equal entries are not always repeated. Toxic doses and inconclusive results are not listed. Rule as the data show it: active = T/C of 150% or more; inactive = T/C below 125%.
System: L1210 leukemia ip in BDF1 mice, survival T/C
Test: NCI In Vivo Anticancer Drug Screen. Data for tumor model L1210 Leukemia (intraperitoneal) in B6D2F1 (BDF1) mice
Conditions: endpoint: mean survival time, higher = longer survival
How it was run: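 In this screen, tumor-bearing mice given compound are compared to those given vehicle, and their survival values are reported as a treated-to-control quotient.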

[1] = dose: 100.0 mg/kg/injection, schedule: Q01DX001 (ip), vehicle: Klucel (hydroxypropylcellulose) (HPC)
[2] = dose: 200.0 mg/kg/injection, schedule: Q01DX001 (ip), vehicle: Klucel (hydroxypropylcellulose) (HPC)
[3] = dose: 400.0 mg/kg/injection, schedule: Q01DX001 (ip), vehicle: Klucel (hydroxypropylcellulose) (HPC)
[4] = dose: 100.0 mg/kg/injection, schedule: Q04DX003 (ip), vehicle: Klucel (hydroxypropylcellulose) (HPC)
[5] = dose: 100.0 mg/kg/injection, schedule: Q01DX001 (ip), vehicle: carboxymethylcellulose (CMC)
[6] = dose: 200.0 mg/kg/injection, schedule: Q01DX001 (ip), vehicle: carboxymethylcellulose (CMC)
[7] = dose: 400.0 mg/kg/injection, schedule: Q01DX001 (ip), vehicle: carboxymethylcellulose (CMC)
[8] = dose: 50.0 mg/kg/injection, schedule: Q01DX009 (ip), vehicle: saline
[9] = dose: 100.0 mg/kg/injection, schedule: Q01DX009 (ip), vehicle: saline
[10] = dose: 100.0 mg/kg/injection, schedule: Q04DX003 (ip), vehicle: saline
[11] = dose: 200.0 mg/kg/injection, schedule: Q04DX003 (ip), vehicle: saline
[12] = dose: 100.0 mg/kg/injection, schedule: Q04DX002 (ip), vehicle: Klucel (hydroxypropylcellulose) (HPC)
[13] = dose: 200.0 mg/kg/injection, schedule: Q04DX002 (ip), vehicle: Klucel (hydroxypropylcellulose) (HPC)
[14] = dose: 400.0 mg/kg/injection, schedule: Q04DX002 (ip), vehicle: Klucel (hydroxypropylcellulose) (HPC)

Measured: T/C

[N-]=[N+]=C1N=C(Br)N=C1c1n[nH]c(Br)n1
inactive: [1] 98 % of control | [2] 109 % of control | [3] 102 % of control

O=C(O)C1CCCCC1/C=N/Nc1ccc([N+](=O)[O-])cc1[N+](=O)[O-] (stereo not drawn)
inactive: dose: 50.0 mg/kg/injection, schedule: Q01DX001 (ip), vehicle: saline 93 % of control | dose: 200.0 mg/kg/injection, schedule: Q01DX001 (ip), vehicle: saline 89 % of control

Cc1ccc(NC(=O)C(F)(F)F)cc1F
inactive: dose: 50.0 mg/kg/injection, schedule: Q01DX009 (ip), vehicle: Klucel (hydroxypropylcellulose) (HPC) 93 % of control | dose: 100.0 mg/kg/injection, schedule: Q01DX009 (ip), vehicle: Klucel (hydroxypropylcellulose) (HPC) 104 % of control | dose: 200.0 mg/kg/injection, schedule: Q01DX009 (ip), vehicle: Klucel (hydroxypropylcellulose) (HPC) 97 % of control

Cc1cc(OC(=O)Nc2cc([N+](=O)[O-])ccc2F)cc(C)c1Cl
inactive: [4] 89 % of control | dose: 200.0 mg/kg/injection, schedule: Q04DX003 (ip), vehicle: Klucel (hydroxypropylcellulose) (HPC) 91 % of control | dose: 400.0 mg/kg/injection, schedule: Q04DX003 (ip), vehicle: Klucel (hydroxypropylcellulose) (HPC) 93 % of control

NC1=NCN(c2ccc(OCCOc3ccc([N+](=O)[O-])cc3)cc2)C(N)=N1
inactive: [1] 107 % of control | [2] 102 % of control | [3] 97 % of control

CCOC(=O)C(C)Oc1cc(C)c(Cl)cc1Cl (stereo not drawn)
inactive: dose: 50.0 mg/kg/injection, schedule: Q01DX001 (ip), vehicle: carboxymethylcellulose (CMC) 96 % of control | [5] 96 % of control | [6] 107 % of control | [7] 107 % of control

O=C(CCl)c1ccc(Oc2ccccc2)cc1
inactive: dose: 20.0 mg/kg/injection, schedule: Q01DX009 (ip), vehicle: Klucel (hydroxypropylcellulose) (HPC) 103 % of control | dose: 20.0 mg/kg/injection, schedule: Q04DX003 (ip), vehicle: Klucel (hydroxypropylcellulose) (HPC) 107 % of control | dose: 40.0 mg/kg/injection, schedule: Q01DX009 (ip), vehicle: Klucel (hydroxypropylcellulose) (HPC) 100 % of control | dose: 40.0 mg/kg/injection, schedule: Q04DX003 (ip), vehicle: Klucel (hydroxypropylcellulose) (HPC) 104 % of control | dose: 80.0 mg/kg/injection, schedule: Q04DX003 (ip), vehicle: Klucel (hydroxypropylcellulose) (HPC) 105 % of control | [4] 89 % of control

Cc1ccc(S(=O)(=O)[O][Pb]([CH3])([CH3])[CH3])cc1
inactive: dose: 3.12 mg/kg/injection, schedule: Q01DX009 (ip), vehicle: saline 104 % of control | dose: 3.12 mg/kg/injection, schedule: Q04DX002 (ip), vehicle: saline 108 % of control | dose: 6.25 mg/kg/injection, schedule: Q01DX009 (ip), vehicle: saline 86 % of control | dose: 6.25 mg/kg/injection, schedule: Q04DX002 (ip), vehicle: saline 108 % of control | dose: 12.5 mg/kg/injection, schedule: Q04DX002 (ip), vehicle: saline 101 % of control

O=C(C(F)F)C(F)F
inactive: [8] 91 % of control | [9] 91 % of control | [10] 106 % of control | [11] 104 % of control

COC(=O)C1(O)c2ccccc2-c2ccccc21
inactive: [5] 103 % of control | [6] 111 % of control | [7] 97 % of control

COc1ccc(N=C2OC(=O)c3ccccc32)cc1
inactive: [9] 91 % of control | [10] 94 % of control | dose: 200.0 mg/kg/injection, schedule: Q01DX009 (ip), vehicle: saline 100 % of control | [11] 103 % of control | dose: 400.0 mg/kg/injection, schedule: Q01DX009 (ip), vehicle: saline 89 % of control | dose: 400.0 mg/kg/injection, schedule: Q04DX003 (ip), vehicle: saline 92 % of control

Cc1ccc(S(=O)(=O)OCC(c2ccccc2)C(F)(F)F)cc1 (stereo not drawn)
inactive: dose: 100.0 mg/kg/injection, schedule: Q01DX001 (ip), vehicle: saline with Tween-80 94 % of control | dose: 200.0 mg/kg/injection, schedule: Q01DX001 (ip), vehicle: saline with Tween-80 100 % of control | dose: 400.0 mg/kg/injection, schedule: Q01DX001 (ip), vehicle: saline with Tween-80 101 % of control

OC1(C2C=CC=C2)c2ccccc2C=Cc2ccccc21
inactive: dose: 9.38 mg/kg/injection, schedule: Q01DX001 (ip), vehicle: other 100 % of control | dose: 18.75 mg/kg/injection, schedule: Q01DX001 (ip), vehicle: other 100 % of control | dose: 37.5 mg/kg/injection, schedule: Q01DX001 (ip), vehicle: other 100 % of control

CC(=O)Nc1ncc(/C=C/c2ccc([N+](=O)[O-])cc2)c(NC(C)=O)n1
inactive: [1] 100 % of control | [2] 87 % of control | [3] 87 % of control

O=C1NC2C=CC1/C=C\C=C/2 (stereo not drawn)
inactive: dose: 100.0 mg/kg/injection, schedule: Q04DX002 (ip), vehicle: saline 96 % of control | dose: 200.0 mg/kg/injection, schedule: Q04DX002 (ip), vehicle: saline 86 % of control

Cc1cc(OC(=O)Nc2ccc(Cl)cc2)ccc1Cl
inactive: dose: 100.0 mg/kg/injection, schedule: Q01DX001 (ip), vehicle: other 103 % of control | dose: 100.0 mg/kg/injection, schedule: Q01DX009 (ip), vehicle: other 93 % of control and 100 % of control | [12] 106 % of control | dose: 100.0 mg/kg/injection, schedule: Q04DX002 (ip), vehicle: other 95 % of control and 91 % of control | dose: 100.0 mg/kg/injection, schedule: Q04DX003 (ip), vehicle: other 96 % of control | dose: 200.0 mg/kg/injection, schedule: Q01DX001 (ip), vehicle: other 96 % of control | dose: 200.0 mg/kg/injection, schedule: Q01DX009 (ip), vehicle: other 93 % of control and 95 % of control | [13] 117 % of control | dose: 200.0 mg/kg/injection, schedule: Q04DX002 (ip), vehicle: other 100 % of control and 91 % of control | dose: 200.0 mg/kg/injection, schedule: Q04DX003 (ip), vehicle: other 91 % of control | dose: 400.0 mg/kg/injection, schedule: Q01DX001 (ip), vehicle: other 96 % of control | dose: 400.0 mg/kg/injection, schedule: Q01DX009 (ip), vehicle: other 92 % of control and 86 % of control | [14] 95 % of control | dose: 400.0 mg/kg/injection, schedule: Q04DX002 (ip), vehicle: other 91 % of control and 92 % of control | dose: 400.0 mg/kg/injection, schedule: Q04DX003 (ip), vehicle: other 95 % of control

CCCCCCCCCCCCC(O)(CC)C(=O)O (stereo not drawn)
inactive: [12] 98 % of control | [13] 91 % of control | [14] 91 % of control

NCc1ccc(NC(=O)c2ccc(C(=O)Nc3ccc(CN)cc3)cc2)cc1
inactive: dose: 15.0 mg/kg/injection, schedule: Q01DX Z (ip), vehicle: water 97 % of control | dose: 20.0 mg/kg/injection, schedule: Q01DX Z (ip), vehicle: water 102 % of control | dose: 30.0 mg/kg/injection, schedule: Q01DX Z (ip), vehicle: water 96 % of control | dose: 40.0 mg/kg/injection, schedule: Q01DX Z (ip), vehicle: water 102 % of control

[Cl][Sn]([Cl])([c]1ccccc1)[c]1ccccc1.c1ccncc1
inactive: dose: 25.0 mg/kg/injection, schedule: Q01DX009 (ip), vehicle: saline 111 % of control | [8] 114 % of control | [9] 96 % of control
